# Tests used:
# [1] = Plasma ketamine concentrations during intravenous bolus plus continuous infusion; type: in vivo; conditions: human
# Method: (§1) Subjects checked in on day − 1 of each treatment period during which vital signs, electrocardiogram (ECG), and laboratory safety tests were repeated. On day 1 of each treatment period, subjects received a 3-, 10-, or 30-mg TAK-063 dose or placebo tablets. Participants then relaxed, slept, or watched movies while remaining in the research environment. Ketamine (0.12 mg/kg intravenous bolus over 60 s followed by a continuous infusion of 0.31 mg/kg/h over approximately 150 min) was administered 4 h after TAK-063 or placebo (Fig. 1). This ketamine dose was based on a previous study that achieved steady-state concentrations of 75 ng/mL and provided a robust BOLD signal with minimal psychotomimetic symptoms (De Simoni et al. [2013]).
# Blood samples were collected for the determination of TAK-063 and ketamine concentrations, and ketamine concentrations were used to verify intravenous delivery of ketamine. Blood samples for determination of TAK-063 concentration were collected at pre-dose and at 0.5, 2, 3, 4.5, 6, 8, 10, 12, and 24 h post dose. Blood samples for determination of ketamine concentration were collected at 0.5, 1, 2, and 2.5 h after administration of ketamine. The target ketamine concentration was established at 75 ng/mL. PK samples were not collected from the arm in which ketamine was administered.
# healthy male subjects = assay: Ketamine-induced changes in fMRI BOLD signal during resting state; type: in vivo, human
# Method: as §1
# The scanning protocol for the current study was very comprehensive and included multiple MR approaches. This publication reports the BOLD fMRI data for the working memory task, but also resting state fMRI. The magnetic scanning portion of the neuroimaging test battery was initiated 20 min before ketamine dosing. Imaging was performed using a 3 Tesla Siemens Trio scanner. The MR scanning protocol was initiated 20 min before ketamine dosing; prior to scanning, a structural magnetization prepared rapid gradient echo (MPRAGE) scan was collected. As part of the scanning protocol, each subject received 20 min of scanning − 10 min arterial spin labeling (ASL) plus 10 min resting BOLD prior to ketamine infusion. After ketamine infusion, the resting state fMRI BOLD acquisition continued for an additional 10 min. Next, a Spatial Working Memory task-induced fMRI BOLD acquisition was performed for 15 min. Following these BOLD acquisitions, another 10 min ASL scan was acquired and a 10-min T1 relaxometry scan was conducted. The MR scanning sequence ended with a 5-min MPRAGE acquisition.
# Fifty sequential gradient-echo echoplanar images (EPIs) sensitive to blood oxygenation level-dependent (BOLD) signal were collected in contiguous slices of 6-mm thickness, with 3000-ms repetition time, 40-ms echo time, 20 × 20-cm field of view, a 64 × 64 image matrix, 70° flip angle, and an in-plane resolution of 3 × 3 mm. A working memory challenge based on the expectancy A-X Continuous Performance Test (AX-CPT) paradigm was presented. The AX-CPT task was implemented in Eprime and presents 144 trials in four blocks of 36 trials. Before scanning, participants practiced the task (Barch et al. [2001]; MacDonald et al. [2003]).
# We conducted a number of pre-processing steps to standardize examination of data after acquisition. These steps included (a) using the anatomical image (T1 weighted MPRAGE acquired for each subject at the beginning of the imaging session) to determine the parameters for spatial normalization to the EPI template image supplied with statistical parametric mapping (SPM) using a 12-parameter transformation; (b) registering functional images to correct for subject movement during the experimental paradigm; (c) normalizing functional images to transform images from analyzed subjects into the same standard space; (d) smoothing images (8-mm full width at half maximum [FWHM]) to minimize normalization artifacts and improve signal to noise ratio; (e) applying a high pass filter of 1200 s to the data following spatial smoothing to minimize the influence of very low frequency noise present in fMRI BOLD data without distorting the ketamine response profile. […]
# [2] = 0.12 mg/kg iv bolus then 0.31 mg/kg/h infusion; ref De Simoni et al. [2013]; cited from earlier work
# healthy human subjects = conditions: cited from earlier work
SMILES,"concentration at 30 min ([1]; 30 min post dose, with placebo or TAK-063 3 to 30 mg, range of means)","Cmax ([1]; during continuous infusion, range of means across regimens)",Tmax ([1]; range across regimens),"activation in ROIs (healthy male subjects; percent BOLD signal change, resting state (Fig. 7))","effect on fMRI BOLD resting signal (healthy male subjects; placebo group, most regions studied)","effect on fMRI BOLD in cingulate/BA25 (healthy male subjects; placebo group, resting state)",steady-state concentration [2],"ketamine-induced changes in BOLD signal (healthy human subjects; ref Doyle et al. [2013], Shcherbinin et al. [2015])",ketamine-induced changes in brain perfusion (ASL) (healthy human subjects; ref Shcherbinin et al. [2015])
CNC1(c2ccccc2Cl)CCCCC1=O (stereo not drawn) [ketamine],69.9 to 83.3 ng/mL,168 to 179 ng/mL,2.3 to 2.5 h,increased activation in all ROIs examined,increased fMRI BOLD resting signal,decrease in fMRI BOLD,75 ng/mL,–,–
Cc1nc2n(c(=O)c1CCN1CCC(c3noc4cc(F)ccc34)CC1)CCCC2 [risperidone],–,–,–,–,–,–,–,reversed,increased ketamine-induced perfusion changes
